Results as given in PMC10897476, “Pyridylpiperazine efflux pump inhibitor boosts in vivo antibiotic efficacy against K. pneumoniae” (EMBO Molecular Medicine, 2023).
Marks after values point to notes of the source that are not given here.

What was measured:
E. coli BW25113 = assay: PyrPip boosting of pyridomycin activity in E. coli (resazurin reduction); type: cell-based, Escherichia coli; conditions: for EC90: read-out: PyrPip antibiotic boosting activity EC90
Excerpt: With the aim of developing a PyrPip for in vivo efficacy studies in mice, it was important to optimise the metabolic stability of these efflux pump inhibitors to guarantee sufficient exposure in mice needed for antibiotic boosting. […] To identify metabolically stabilised PyrPips while maintaining AcrB inhibition, it was therefore decided to explore modifications to the quinoline core as well as the introduction of substituents at position 6 of the quinoline ring.

[1] = Microsomal stability in mouse liver microsomes; type: in vitro ADME; conditions: for microsomal CLint at 1 μM / half-life at 1 μM: female; for microsomal CLint at 1 μM: CD-1, pH 7.4, read-out: Microsomal stability CLint (intrinsic clearance); for half-life at 1 μM: CD-1, pH 7.4, read-out: Microsomal stability t1/2
Procedure: To determine compound microsomal stability, liver microsomes from female mice (CD-1, Corning) were used. All incubations were performed in duplicate in a shaking water bath at 37 °C. The incubation mixtures contained 1 μM compound with 1% MeOH used as a vehicle, mouse liver microsomes (0.3 mg of microsomal protein per mL), 5 mM MgCl2, 1 mM NADP, 5 mM glucose 6-phosphate, 0.4 U/mL glucose 6-phosphate dehydrogenase, and 50 mM potassium phosphate buffer (pH 7.4) in a final volume of 0.5 mL. Propranolol, known as a high hepatic clearance drug in rodents, was used as a quality-control compound. Controls (t0 and tfinal) were performed in the same conditions but without NADP. The reaction was initiated by the addition of the compound at 1 µM final. Aliquots were removed at 5, 10, 20, 30, and 40 min and the reaction was stopped by adding four volumes of ice-cold MeCN or MeOH containing an internal standard. The samples were centrifuged for 10 min at 12,000 rpm at 4 °C and the supernatants were transferred in matrix tubes for LC-MS/MS analysis. Each compound was quantified by converting the corresponding analyte/internal standard peak area ratios to percentage drug remaining, using the initial ratio values in control incubations as 100%.
Intrinsic clearance (CLint) is expressed as μL/min/mg proteins.

K. pneumoniae AcrB^V448E = assay: MIC of antibiotics with and without EPI (REMA), AcrB V448E mutant; type: cell-based, Klebsiella pneumoniae; conditions: for Minimum Inhibitory Concentration: K. pneumoniae AcrB^V448E; for MIC: Klebsiella pneumoniae, read-out: Minimum Inhibitory Concentration
Procedure: (§1) MIC experiments were carried out according to the CLSI guidelines (CLSI [2023]). Overnight cultures were diluted to an OD600 = 0.001 in CAMHB followed by addition of efflux pump inhibitors (EPIs) at a final concentration of 100 µM. […] Plates were incubated at 37 °C for up to 20 h. Bacterial viability was evaluated using the resazurin microtitre assay (REMA) and measured by fluorescence using a Tecan Spaert multimode plate reader (Ex: 530 nm Em: 590 nm). MICs were defined as the concentration that prevented 90% of resazurin turnover compared to the non-treated bacteria.
(§2) Mutations in acrB or ramR identified in the BDM88855.HCl (1’) resistant mutant (a.k.a., KPJC11) were introduced individually into K. pneumoniae ATCC 43816 chromosome by allelic exchange (Cianfanelli et al, [2020]). Briefly, 1-kb PCR products centred around each point mutation were generated by amplifying acrB with primers RH1251 ([…][…]) and RH1252 ([…][…]) or ramR with primers RH1249 ([…][…]) and RH1250 ([…][…]) from KPJC11 genomic DNA. PCR fragments were cloned into pFOK (Cianfanelli et al, [2020]) using NEB-building kit ([New England Biolabs]) to generate pEP1533 and pEP1534. Correct plasmids were confirmed by sequencing and introduced into K. pneumoniae ATCC43816 WT via conjugation with the MFDpir+ E. coli donor strain. Exconjugants were selected on kanamycin (50 mg/L) plates at 37 °C and plasmid chromosomal integration was checked by PCR. […] The next day, cultures were diluted and plated onto LB agar. Isolated colonies were then patched onto LB plates with or without kanamycin (50 mg/L) and Km^S candidates were evaluated for correct allelic exchange via acrB or ramR sequencing and then WGS to confirm no additional mutations were introduced.

[2] = system: K. pneumoniae RamR^mut (K124*stop); assay: MIC of antibiotics with and without EPI (REMA), RamR mutant; type: cell-based, Klebsiella pneumoniae; conditions: for Minimum Inhibitory Concentration: K. pneumoniae RamR^mut; for MIC: Klebsiella pneumoniae, read-out: Minimum Inhibitory Concentration
Procedure: as §1, §2

[3] = system: K. pneumoniae ATCC 43816 (WT); assay: MIC of antibiotics with and without EPI (REMA), WT strain; type: cell-based, Klebsiella pneumoniae; conditions: for Minimum Inhibitory Concentration / MIC: K. pneumoniae WT; for MIC: Klebsiella pneumoniae, ATCC43816, No EPI, read-out: Minimum Inhibitory Concentration
Procedure: Overnight cultures were diluted to an OD600 = 0.001 in CAMHB followed by addition of efflux pump inhibitors (EPIs) at a final concentration of 100 µM. […] Plates were incubated at 37 °C for up to 20 h. […] MICs were defined as the concentration that prevented 90% of resazurin turnover compared to the non-treated bacteria.

[4] = system: K. pneumoniae AcrB^V448E RamR^mut; assay: MIC of antibiotics with and without EPI (REMA), double mutant; type: cell-based, Klebsiella pneumoniae; conditions: for Minimum Inhibitory Concentration: K. pneumoniae AcrB^V448E RamR^mut; for MIC: Klebsiella pneumoniae, read-out: Minimum Inhibitory Concentration
Procedure: as §1

[5] = E. coli BW25113 in the presence of 8 μg/mL pyridomycin, resazurin reduction, mean ± SEM

Compound: Clc1nc2ccccc2nc1N1CCNCC1 [compound 3]
- EC90 (E. coli BW25113; [5]): 3.9 ± 1.6 µM
- microsomal CLint at 1 μM [1]: 111 µL/min/mg
- half-life at 1 μM [1]: 15 min

Compound: NCC(=O)Nc1ccc2nc(N3CCNCC3)c(Cl)cc2c1 [compound 10]
- EC90 (E. coli BW25113; [5]): 3.9 µM
- microsomal CLint at 1 μM [1]: 2 µL/min/mg
- half-life at 1 μM [1]: > 40 min

Compound: Clc1cc2ccccc2nc1N1CCNCC1 [compound 1]
- PyrPip antibiotic boosting activity EC90 (E. coli BW25113; [5]): 3.6 ± 0.5 µM
- Microsomal stability CLint (intrinsic clearance) [1]: 59 μL/min/mg proteins
- Microsomal stability t1/2 [1]: 24 min
- susceptibility of the strain to antibiotic boosting by the EPI, in words (K. pneumoniae AcrB^V448E; K. pneumoniae-AcrB^V448E, Table 2): resistant
- EPI mediated antibiotic boosting, in words ([2]; K. pneumoniae-RamR^mut, Table 2): maintained

Compound: N[C@@H]1CCN(c2ccc3nc(N4CCNCC4)c(Cl)cc3c2)C1 [compound 12]
- EC90 (E. coli BW25113; [5]): 1.3 ± 0.4 µM
- improvement of potency (EC90) (E. coli BW25113; compared to analogue 5): 3 fold
- microsomal CLint at 1 μM [1]: 303 µL/min/mg
- half-life at 1 μM [1]: 2.6 min

Compound: N[C@H]1CCN(c2ccc3nc(N4CCNCC4)c(Cl)cc3c2)C1 [compound 13]
- EC90 (E. coli BW25113; [5]): 9.1 ± 4.3 µM

Compound: NCCCNc1ccc2nc(N3CCNCC3)c(Cl)cc2c1 [compound 11]
- EC90 (E. coli BW25113; [5]): 7.8 µM
- decrease in potency (EC90) (E. coli BW25113; relative to compound 9): 2 fold

Compound: Clc1cc2cc(N3CCOCC3)ccc2nc1N1CCNCC1 [compound 6]
- EC90 (E. coli BW25113; [5]): 104 ± 28 µM
- microsomal CLint at 1 μM [1]: 103 µL/min/mg
- half-life at 1 μM [1]: 11 min

Compound: NCCNc1ccc2nc(N3CCNCC3)c(Cl)cc2c1 [compound 9]
- EC90 (E. coli BW25113; [5]): 3.9 µM
- microsomal CLint at 1 μM [1]: 47 µL/min/mg
- half-life at 1 μM [1]: 40 min

Compound: Clc1cc2cc[nH]c2nc1N1CCNCC1 [compound 4]
- EC90 (E. coli BW25113; [5]): > 250 µM

Compound: Clc1cc2cc(N3CCCCC3)ccc2nc1N1CCNCC1 [compound 7]
- EC90 (E. coli BW25113; [5]): 13 ± 4 µM
- microsomal CLint at 1 μM [1]: 223 µL/min/mg
- half-life at 1 μM [1]: 6 min

Compound: Clc1nc2ccccc2cc1N1CCNCC1 [compound 2]
- EC90 (E. coli BW25113; [5]): 15.6 µM
- decrease in potency (EC90) on changing the position of the nitrogen atom (E. coli BW25113; relative to BDM88855.HCl (1’)): 4 fold

Compound: C[C@@H](O)[C@H]1C(=O)N2C(C(=O)O)=C(S[C@@H]3CN[C@H](C(=O)N(C)C)C3)[C@H](C)[C@H]12 [Meropenem]
- Minimum Inhibitory Concentration ([3]; + 100 µM 1'): 0.50 mg/L
- Minimum Inhibitory Concentration ([3]; + 100 µM 5): 0.50 mg/L
- Minimum Inhibitory Concentration ([3]; + 100 µM PAβN): 0.50 mg/L
- MIC [3]: 0.5 µg/mL
- Minimum Inhibitory Concentration (K. pneumoniae AcrB^V448E; + 100 µM 1'): 0.67 mg/L
- Minimum Inhibitory Concentration (K. pneumoniae AcrB^V448E; + 100 µM 5): 0.50 mg/L
- Minimum Inhibitory Concentration (K. pneumoniae AcrB^V448E; + 100 µM PAβN): 0.50 mg/L
- MIC (K. pneumoniae AcrB^V448E): 0.5 µg/mL
- Minimum Inhibitory Concentration ([2]; + 100 µM 1'): 0.50 mg/L
- Minimum Inhibitory Concentration ([2]; + 100 µM 5): 0.50 mg/L
- Minimum Inhibitory Concentration ([2]; + 100 µM PAβN): 0.50 mg/L
- MIC [2]: 0.5 µg/mL
- Minimum Inhibitory Concentration ([4]; + 100 µM 1'): 0.50 mg/L
- Minimum Inhibitory Concentration ([4]; + 100 µM 5): 0.50 mg/L
- Minimum Inhibitory Concentration ([4]; + 100 µM PAβN): 1.0 mg/L
- MIC [4]: 0.67 µg/mL

Compound: O=C1CNCCN1c1ccc2nc(N3CCNCC3)c(Cl)cc2c1 [compound 8]
- EC90 (E. coli BW25113; [5]): 31 µM
- decrease in potency (EC90) (E. coli BW25113; piperazinone in place of the piperazine of compound 5): 8 fold

Compound: CC[C@H]1OC(=O)[C@H](C)[C@@H](O[C@H]2C[C@@](C)(OC)[C@@H](O)[C@H](C)O2)[C@H](C)[C@@H](O[C@@H]2O[C@H](C)C[C@H](N(C)C)[C@H]2O)[C@](C)(O)C[C@@H](C)CN(C)[C@H](C)[C@@H](O)[C@]1(C)O [Azithromycin]
- Minimum Inhibitory Concentration ([3]; + 100 µM 1'): 2.7^# mg/L
- Minimum Inhibitory Concentration ([3]; + 100 µM 5): 2.0^# mg/L
- Minimum Inhibitory Concentration ([3]; + 100 µM PAβN): 0.5^# mg/L
- MIC [3]: 16 µg/mL
- boosting of antibiotic activity in combination with EPIs ([3]; Table 2): at least 8 fold
- Minimum Inhibitory Concentration (K. pneumoniae AcrB^V448E; + 100 µM 1'): 6.7^# mg/L
- Minimum Inhibitory Concentration (K. pneumoniae AcrB^V448E; + 100 µM 5): 11^# mg/L
- Minimum Inhibitory Concentration (K. pneumoniae AcrB^V448E; + 100 µM PAβN): 0.5^# mg/L
- MIC (K. pneumoniae AcrB^V448E): 21 µg/mL
- Minimum Inhibitory Concentration ([2]; + 100 µM 1'): 11^# mg/L
- Minimum Inhibitory Concentration ([2]; + 100 µM 5): 3.3^# mg/L
- Minimum Inhibitory Concentration ([2]; + 100 µM PAβN): 0.7^# mg/L
- MIC [2]: 37 µg/mL
- Minimum Inhibitory Concentration ([4]; + 100 µM 1'): 37 mg/L
- Minimum Inhibitory Concentration ([4]; + 100 µM 5): 21 mg/L
- Minimum Inhibitory Concentration ([4]; + 100 µM PAβN): 0.7^# mg/L
- MIC [4]: 21 µg/mL
